{"source": "patent US5332811A", "about": "“Etopside analogs” (priority 1991, dated 1994)", "key": {"[1]": {"system": "Human DNA topoisomerase II", "settings": "at higher concentrations; Thurston et al. 1986; cited from earlier work"}, "KB cells": {"system": "KB cells", "test": "Cytotoxicity: 50% reduction in cell number of KB cells after three day incubation", "assay_type": "cell-based", "settings": "Homo sapiens, 72 h, read-out: Cytotoxicity ID50 KB", "method": "(§1) The compounds of the present invention were tested for their degree of inhibitory activity on human type II DNA topoisomerase, their effect on the formation of protein-linked DNA breakage, and their cytotoxicity. The inhibitory activity for compounds of the present invention correlated with the ability of the compounds to cause DNA strand breakage. […] For a description of the assays used with respect to the compounds listed in Tables 1 to 5 see Thurston, L.S., Irie, H., Tani, S., Han, F. S., Liu, Z. C., Cheng, Y.C., and Lee, K. H., Antitumor Agents 78. Inhibition of Human DNA Topoisomerase II by Podophyllotoxin and Peltatin Analogues, J. Med. Chem. 29, 1547 (1986), and the references cited therein, herein incorporated by reference.\nin cell number after three day incubation."}, "[2]": {"target": "Human DNA topoisomerase II", "test": "DNA topoisomerase II assay (P4 unknotting reaction)", "assay_type": "biochemical", "settings": "for pIC50: read-out: Inhibition of DNA Topoisomerase II Activity ID50; for inhibition of DNA topoisomerase activity relative to etoposide: compared with etoposide", "method": "as §1, with “cytotoxicity.” for “cytotoxicity. The inhibitory activity for compounds of the present invention correlated with the ability of the compounds to cause DNA strand breakage.”\nHuman DNA topoisomerase II was isolated from peripheral blast cells of a patient with acute leukemia. The isolation procedure is described in Thurston, L., Imakura, Y., Haruna, M., Li, Z. C., Liu, S. Y., and Lee, K. H., J. Med. Chem., 31, […] (1988) and is a partial combination of the procedure described in Goto, T., Laiapia, P. and Wang, J., J. Biol. Chem., 259, 10422 (1984) and Halligan, B., Edwards, K., and Liu, L., J. Biol. Chem., 260, 2475 (1985) which are herein specifically incorporated by reference.\n(§2) Drugs were dissolved in Me2 SO at a concentration of 20 mM as the stock solution and diluted before use with water to the desired concentration of each drug.\nThe P4 unknotting reaction was a modification of the procedure described by Hseih, T., J. Biol. Chem., 258, 8413 (1985), which is herein specifically incorporated by reference.\nThe reaction mixture (20 μL), which contained 50 mM HEPES, pH 7.0, 50 mM KCI, 100 mM NaCl, 0.1 mM EDTA, 10 mM MgCl2, 1.0 mM ATP, 50 μg/mL bovine serum albumin, 0.4 μg P4knotted DNA, and enzyme, was incubated with or without drugs.\nThe reaction mixture was incubated at 37° C. for 30 min and terminated by adding 5.0 μl of a stop solution (2% sodium dodecyl sulfate, 20% glycerol, 0.05% bromophenol blue). These samples were loaded onto a 1% agarose gel and electrophoresed at 55 V overnight with an electrophoresis buffer that contained 90 mM Tris-boric acid, pH 8.3, and 2.5 mM EDTA. At completion, the gel was stained in 0.5 μg/mL of ethidium bromide. Then a photograph was taken of the DNA bands visualized with fluorescence induced by a long-wavelength UV lamp. […]"}, "[3]": {"system": "covalent topoisomerase II-DNA complexes", "test": "K-SDS precipitation assay for protein-DNA complexes in KB ATCC cells (cellular protein-DNA complex formation)", "assay_type": "cell-based", "settings": "compared with etoposide", "method": "as §1, §2\nThe intracellular formation of covalent topoisomerase II-DNA complexes was quantitated using the potassium SDS precipitation assay, a procedure adapted from the method described in Rowe, T. C., Chen, G. L., Hsiang, Y. H., and Liu, L., Cancer Res., 46, 2021 (1986) (hereinafter Rowe et al.), which is herein specifically incorporated by reference. KB ATCC cells were prelabeled with 0.05 mCi/ml ^14 C-thymidine (specific activity 50.5 mCi/mmol) for 18 hr. A final concentration of 5×10^5 cells/sample were treated with 10 μM of the drugs at 37° C. for 1 hr and proceeded according to the procedure described by Rowe et al. to detect the protein linked DNA levels."}, "[4]": {"system": "several human neoplasms, including small cell carcinomas of the lung, testicular carcinomas, Hodgkin's disease, leukemia, lymphoma and Kaposi's Sarcoma", "settings": "background; cited from earlier work"}, "[5]": {"settings": "clinical level; background; cited from earlier work"}, "[6]": {"settings": "clinical level; background; cited from earlier work", "remark": "listed apart in the source"}, "[7]": {"settings": "Table 1, KB cells, three day incubation"}, "[8]": {"settings": "Table 1, based on degree of inhibition at 25, 50, and 100 μM"}, "[9]": {"settings": "Table 4, KB cells, three day incubation"}, "[10]": {"settings": "Table 4, based on degree of inhibition at 10, 25, 50 and 100 μM"}, "[11]": {"settings": "Table 5, KB cells, three day incubation"}, "[12]": {"settings": "Table 5, based on degree of inhibition at 10, 25, 50 and 100 μM"}}, "note": "pIC50: −log10 of the molar value. Read-outs that look alike come from different tables or passages of the source."}
{"smiles": "CCOC1c2cc3c(cc2C(c2cc(OC)c(O)c(OC)c2)C2C(=O)OCC12)OCO3", "note": "(stereo not drawn) [4'-demethyl-epipodophyllotoxin ethyl ether]", "values": [{"measurement": "inhibitory activity of DNA topoisomerase II", "setting": "[1]", "result": "preserves the inhibitory activity of DNA topoisomerase II intact at higher concentrations"}]}
{"smiles": "COc1cc(C2c3cc4c(cc3C(NCc3cccc(F)c3)C3COC(=O)C23)OCO4)cc(OC)c1O", "note": "(stereo not drawn) [Example 8, 4-O-Dimethyl-4β-(3\"-fluorobenzylamino)-4-desoxypodophyllotoxin]", "values": [{"measurement": "pIC50", "setting": "KB cells; [7]", "result": 5.52}, {"measurement": "pIC50", "setting": "[2]; [8]", "result": 4.60}, {"measurement": "inhibition of DNA topoisomerase activity relative to etoposide", "setting": "[2]", "result": "over twice"}, {"measurement": "inhibition of cellular protein-DNA complex formation relative to etoposide", "setting": "[3]", "result": "over twice"}]}
{"smiles": "COc1cc(C2c3cc4c(cc3C(NCc3cccc(C#N)c3)C3COC(=O)C23)OCO4)cc(OC)c1O", "note": "(stereo not drawn) [Example 10, 4'-O-Demethyl-4β-(3\"-cyanobenzylamino)-4-desoxypodophyllotoxin]", "values": [{"measurement": "pIC50", "setting": "KB cells; [7]", "result": "> 6.40"}, {"measurement": "pIC50", "setting": "[2]; [8]", "result": 4.60}, {"measurement": "inhibition of DNA topoisomerase activity relative to etoposide", "setting": "[2]", "result": "over twice"}, {"measurement": "inhibition of cellular protein-DNA complex formation relative to etoposide", "setting": "[3]", "result": "over twice"}]}
{"smiles": "COc1cc(C2c3cc4c(cc3C(NCc3ccc(C#N)cc3)C3COC(=O)C23)OCO4)cc(OC)c1O", "note": "(stereo not drawn) [Example 11, 4'-O-Demethyl-4β-(4\"-cyanobenzylamino)-4-desoxypodophyllotoxin]", "values": [{"measurement": "pIC50", "setting": "KB cells; [7]", "result": "> 6.40"}, {"measurement": "pIC50", "setting": "[2]; [8]", "result": 4.60}, {"measurement": "inhibition of DNA topoisomerase activity relative to etoposide", "setting": "[2]", "result": "over twice"}, {"measurement": "inhibition of cellular protein-DNA complex formation relative to etoposide", "setting": "[3]", "result": "over twice"}]}
{"smiles": "COc1cc(C2c3cc4c(cc3C(Nc3ccc([N+](=O)[O-])cc3)C3COC(=O)C23)OCO4)cc(O)c1O", "note": "(stereo not drawn) [Example 23, 3',4'-O-Didemethyl-4β-(4\"-nitroanilino)-4-desoxypodophyllotoxin]", "values": [{"measurement": "pIC50", "setting": "KB cells; Table 2, KB cells, three day incubation", "result": 5.89}, {"measurement": "pIC50", "setting": "[2]; Table 2, based on degree of inhibition at 10, 25, 50 and 100 μM", "result": 5.00}, {"measurement": "inhibition of DNA topoisomerase activity relative to etoposide", "setting": "[2]", "result": "over twice"}, {"measurement": "inhibition of cellular protein-DNA complex formation relative to etoposide", "setting": "[3]", "result": "over twice"}]}
{"smiles": "COc1cc([C@@H]2c3cc4c(cc3[C@@H](NC(=O)c3ccc(OC(C)=O)cc3)[C@H]3COC(=O)[C@H]23)OCO4)cc(OC)c1O", "note": "[Example 37, 4'-O-Demethyl-4β-[(4-acetoxybenoyl)amino]-4-desoxypodophyllotoxin]", "values": [{"measurement": "pIC50", "setting": "KB cells; [9]", "result": 6.21}, {"measurement": "pIC50", "setting": "[2]; [10]", "result": 4.60}]}
{"smiles": "COc1cc([C@@H]2c3cc4c(cc3[C@@H](NC(=O)c3ccc(C(C)=O)cc3)[C@H]3COC(=O)[C@H]23)OCO4)cc(OC)c1O", "note": "[Example 38]", "values": [{"measurement": "pIC50", "setting": "KB cells; [9]", "result": 6.00}, {"measurement": "pIC50", "setting": "[2]; [10]", "result": 4.30}]}
{"smiles": "COc1cc([C@@H]2c3cc4c(cc3[C@@H](NC(=O)c3cccc(C#N)c3)[C@H]3COC(=O)[C@H]23)OCO4)cc(OC)c1O", "note": "[Example 39, 4'-O-Demethyl-4β-[(3\"-cyanobenzoyl)amino]-4-desoxypodophyllotoxin]", "values": [{"measurement": "pIC50", "setting": "KB cells; [9]", "result": 6.00}, {"measurement": "pIC50", "setting": "[2]; [10]", "result": 4.30}]}
{"smiles": "COc1cc([C@@H]2c3cc4c(cc3[C@@H](NC(=O)c3ccc(C#N)cc3)[C@H]3COC(=O)[C@H]23)OCO4)cc(OC)c1O", "note": "[Example 40, 4'-O-Demethyl-4β-[(4\"-cyanobenzoyl)amino]-4-desoxypodophyllotoxin]", "values": [{"measurement": "pIC50", "setting": "KB cells; [9]", "result": 7.00}, {"measurement": "pIC50", "setting": "[2]; [10]", "result": 4.60}]}
{"smiles": "COc1cc([C@@H]2c3cc4c(cc3[C@@H](NC(=O)c3cccc([N+](=O)[O-])c3)[C@H]3COC(=O)[C@H]23)OCO4)cc(OC)c1O", "note": "[Example 41, 4'-O-Demethyl-4β-[(3\"-nitrobenzoyl)amino]-4-desoxypodophyllotoxin]", "values": [{"measurement": "pIC50", "setting": "KB cells; [9]", "result": 6.48}, {"measurement": "pIC50", "setting": "[2]; [10]", "result": 5.00}]}
{"smiles": "COc1cc([C@@H]2c3cc4c(cc3[C@@H](NC(=O)c3cccc(N)c3)[C@H]3COC(=O)[C@H]23)OCO4)cc(OC)c1O", "note": "[Example 42, 4'-O-Demethyl-4β-[(3\"-aminobenzoyl)amino]-4-desoxypodophyllotoxin]", "values": [{"measurement": "pIC50", "setting": "KB cells; [9]", "result": 6.38}, {"measurement": "pIC50", "setting": "[2]; [10]", "result": 4.60}]}
{"smiles": "COC1=CC([C@@H]2c3cc4c(cc3[C@@H](Nc3ccc(F)cc3)[C@H]3COC(=O)[C@@H]32)OCO4)=CC(=O)C1=O", "note": "[Example 43, 3',4'-Didemethoxy-3',4'-dioxo-4β-(4\"-fluoroanilino)-4-desoxypodophyllotoxin]", "values": [{"measurement": "pIC50", "setting": "KB cells; [11]", "result": "< 5.68"}, {"measurement": "pIC50", "setting": "[2]; [12]", "result": 4.60}]}
{"smiles": "COC1=CC([C@@H]2c3cc4c(cc3[C@@H](Nc3ccc([N+](=O)[O-])cc3)[C@H]3COC(=O)[C@@H]32)OCO4)=CC(=O)C1=O", "note": "[Example 44, 3',4'-Didemethoxy-3',4'-dioxo-4β-(4\"-nitroanilino)-4-desoxypodophyllotoxin]", "values": [{"measurement": "pIC50", "setting": "KB cells; KB", "result": 5.82}, {"measurement": "pIC50", "setting": "[2]; [12]", "result": 5.00}]}
{"smiles": "CCOC(=O)c1ccc(N[C@@H]2c3cc4c(cc3[C@@H](C3=CC(=O)C(=O)C(OC)=C3)[C@H]3C(=O)OC[C@@H]32)OCO4)cc1", "note": "[Example 45, 3',4'-Didemethoxy-3',4'-dioxo-4β-[(4\"-ethoxycarbonyl)anilino]-4-desoxypodophyllotoxin]", "values": [{"measurement": "pIC50", "setting": "KB cells; [11]", "result": 5.96}, {"measurement": "pIC50", "setting": "[2]; [12]", "result": 4.60}]}
{"smiles": "COc1cc([C@@H]2c3cc4c(cc3[C@@H](O[C@@H]3O[C@@H]5CO[C@@H](C)O[C@H]5[C@H](O)[C@H]3O)[C@H]3COC(=O)[C@H]23)OCO4)cc(OC)c1O", "note": "[etoposide]", "values": [{"measurement": "pIC50", "setting": "KB cells; [7]", "result": 6.70}, {"measurement": "therapeutic activity in several human neoplasms", "setting": "[4]", "result": "exhibits therapeutic activity in several human neoplasms"}, {"measurement": "myelosuppression", "setting": "[5]", "result": "myelosuppression"}, {"measurement": "oral bioavailability", "setting": "[6]", "result": "poor oral bioavailability"}]}
